This note sets out measurements from patent publication US11814444B2, “Cyclic polypeptides for PCSK9 inhibition” (Ra Pharmaceuticals, Inc., priority 2018, dated 2023).

This test has as its target human PCSK9 / human LDLR EGFa domain interaction (Homo sapiens, UniProt Q8NBP7). Put plainly: TR-FRET assay of inhibition of the PCSK9-LDLR protein-protein interaction. To be noted: 20 nM avitag-biotinylated human PCSK9, 20 nM his-tagged human LDLR EGFa domain, 2 hours, room temperature. The test is classed as binding. The method in brief:
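Readout is the TR-FRET signal between europium anti-6×His on his-tagged LDLR EGFa domain and Ulight streptavidin on biotinylated PCSK9, both proteins at 20 nM and both detection reagents at 5 nM. Incubation lasted 2 hours at room temperature; compounds were run in dose-response with a 4-parameter fit.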
(In TR-FRET formats the signal depends on donor and acceptor labels being close together.)

Structures are written as SMILES. Numbered stars: 1 amine (or outer) side, 2 acyl side, 3 side chain; on linkers, the order of the positions; unused ones are H or OH. Bridge positions count the residues as written; N and C are the ends. Square brackets hold non-standard residues; d marks the D form. Peptide text beside a SMILES is read from it. Phe(4-guanidino) = N=C(N)Nc1ccc(C[C@H](N)C(=O)O)cc1; Trp(7-aza) = N[C@@H](Cc1c[nH]c2ncccc12)C(=O)O; Gly(piperidin-4-yl) = N[C@H](C(=O)O)C1CCNCC1; Leu(3R-OH) = CC(C)[C@@H](O)[C@H](N)C(=O)O; dBip = N[C@H](Cc1ccc(-c2ccccc2)cc1)C(=O)O; mXylylene = c1cc(C[*:1])cc(C[*:2])c1; Tle = CC(C)(C)[C@H](N)C(=O)O; Ac5c = NC1(C(=O)O)CCCC1; Nva = CCC[C@H](N)C(=O)O; Thp = NC1(C(=O)O)CCOCC1; Mpa = O=C(O)CCS

human PCSK9 / human LDLR EGFa domain interaction, sequence (Q8NBP7 153-692): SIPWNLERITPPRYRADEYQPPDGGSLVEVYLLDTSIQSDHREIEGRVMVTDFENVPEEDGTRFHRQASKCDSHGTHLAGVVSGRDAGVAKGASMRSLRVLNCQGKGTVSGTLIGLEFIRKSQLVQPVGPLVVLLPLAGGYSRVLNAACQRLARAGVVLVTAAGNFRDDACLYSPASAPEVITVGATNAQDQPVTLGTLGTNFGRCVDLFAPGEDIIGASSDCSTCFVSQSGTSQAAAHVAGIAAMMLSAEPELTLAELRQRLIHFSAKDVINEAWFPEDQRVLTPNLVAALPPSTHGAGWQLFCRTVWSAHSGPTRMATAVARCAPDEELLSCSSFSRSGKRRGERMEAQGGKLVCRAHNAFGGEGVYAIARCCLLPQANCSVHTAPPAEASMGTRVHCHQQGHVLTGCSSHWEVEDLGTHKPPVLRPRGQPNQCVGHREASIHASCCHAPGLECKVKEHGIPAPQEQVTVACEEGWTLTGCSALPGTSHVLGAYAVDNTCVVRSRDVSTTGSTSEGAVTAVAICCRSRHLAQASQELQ
human PCSK9 / human LDLR EGFa domain interaction, sequence (Q8NBP7 31-152 partner limits assumed): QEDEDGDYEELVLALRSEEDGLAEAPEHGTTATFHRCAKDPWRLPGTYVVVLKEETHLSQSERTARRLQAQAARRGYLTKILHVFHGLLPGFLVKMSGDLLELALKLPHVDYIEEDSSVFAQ

With `CCC[C@@H]1NC(=O)[C@H](Cc2ccc(O)cc2)NC(=O)[C@H](CCC(=O)O)NC(=O)C2(CCCC2)NC(=O)[C@H](Cc2c[nH]c3ncccc23)NC(=O)[C@H]([C@@H](C)O)NC(=O)[C@H](Cc2c[nH]cn2)NC(=O)[C@H](Cc2ccc(O)cc2)NC(=O)[C@H](C(C)(C)C)NC(=O)CCSCc2cccc(c2)CSC[C@@H](C(N)=O)NC(=O)[C@H]([C@@H](C)O)NC1=O` [Compound 299] ([Mpa][Tle]YHT[Trp(7-aza)][Ac5c]EY[Nva]TC-NH2; linker 1-12 via mXylylene), the IC50 is 100 to 1000 nM.

As to `CCC[C@@H]1NC(=O)[C@H](Cc2ccc(O)cc2)NC(=O)[C@H](CCC(=O)O)NC(=O)C2(CCOCC2)NC(=O)[C@H](Cc2c[nH]c3ncccc23)NC(=O)[C@H]([C@@H](C)O)NC(=O)[C@H](Cc2c[nH]cn2)NC(=O)[C@H](Cc2ccc(O)cc2)NC(=O)[C@H](C(C)(C)C)NC(=O)CCSCc2cccc(c2)CSC[C@@H](C(N)=O)NC(=O)[C@H]([C@@H](C)O)NC1=O` [Compound 300] ([Mpa][Tle]YHT[Trp(7-aza)][Thp]EY[Nva]TC-NH2; linker 1-12 via mXylylene), the IC50 was 100 to 1000 nM.

Consider `CCC[C@@H]1NC(=O)[C@H](Cc2c[nH]c3ncccc23)NC(=O)[C@H]([C@H](O)C(C)C)NC(=O)[C@H](Cc2c[nH]cn2)NC(=O)[C@H](Cc2ccc(O)cc2)NC(=O)[C@H](C(C)(C)C)NC(=O)CCSCc2cccc(c2)CSC[C@@H](C(N)=O)NC(=O)[C@H]([C@@H](C)O)NC(=O)[C@H](CCC)NC(=O)[C@H](Cc2ccc(O)cc2)NC(=O)[C@H](CCC(=O)O)NC1=O` [Compound 305] ([Mpa][Tle]YH[Leu(3R-OH)][Trp(7-aza)][Nva]EY[Nva]TC-NH2; linker 1-12 via mXylylene), for which the IC50 lay within 1000 to 21000 nM.

As to `CCC[C@@H]1NC(=O)[C@H](Cc2c[nH]c3ncccc23)NC(=O)[C@H]([C@@H](C)O)NC(=O)[C@H](Cc2c[nH]cn2)NC(=O)[C@H](Cc2ccc(O)cc2)NC(=O)[C@H](C(C)(C)C)NC(=O)CCSCc2cccc(c2)CSC[C@@H](C(N)=O)NC(=O)[C@H]([C@@H](C)O)NC(=O)[C@H](CCC)NC(=O)[C@H](Cc2ccc(NC(=N)N)cc2)NC(=O)[C@H](CCC(=O)O)NC1=O` [Compound 323] ([Mpa][Tle]YHT[Trp(7-aza)][Nva]E[Phe(4-guanidino)][Nva]TC-NH2; linker 1-12 via mXylylene), the IC50 was 1000 to 21000 nM.

For `CCC[C@@H]1NC(=O)[C@H](Cc2c[nH]c3ncccc23)NC(=O)[C@H]([C@@H](C)O)NC(=O)[C@H](Cc2c[nH]cn2)NC(=O)[C@H](Cc2ccc(O)cc2)NC(=O)[C@H](C(C)(C)C)NC(=O)CCSCc2cccc(c2)CSC[C@@H](C(N)=O)NC(=O)[C@H]([C@@H](C)O)NC(=O)[C@H](CCC)NC(=O)[C@@H](Cc2ccc(-c3ccccc3)cc2)NC(=O)[C@H](CCC(=O)O)NC1=O` [Compound 325] ([Mpa][Tle]YHT[Trp(7-aza)][Nva]E[dBip][Nva]TC-NH2; linker 1-12 via mXylylene), the IC50 lay in the range of 100 to 1000 nM.

`CCC[C@@H]1NC(=O)[C@H](Cc2c[nH]c3ncccc23)NC(=O)[C@H]([C@@H](C)O)NC(=O)[C@H](Cc2c[nH]cn2)NC(=O)[C@H](Cc2ccc(O)cc2)NC(=O)[C@H](C(C)(C)C)NC(=O)CCSCc2cccc(c2)CSC[C@@H](C(N)=O)NC(=O)[C@H]([C@@H](C)O)NC(=O)[C@H](C2CCNCC2)NC(=O)[C@H](Cc2ccc(O)cc2)NC(=O)[C@H](CCC(=O)O)NC1=O` [Compound 331] ([Mpa][Tle]YHT[Trp(7-aza)][Nva]EY[Gly(piperidin-4-yl)]TC-NH2; linker 1-12 via mXylylene) displayed an IC50 of 1000 to 21000 nM.

Consider `CCC[C@@H]1NC(=O)[C@H](Cc2c[nH]c3ncccc23)NC(=O)[C@H]([C@@H](C)OC)NC(=O)[C@H](Cc2c[nH]cn2)NC(=O)[C@H](Cc2ccc(O)cc2)NC(=O)[C@H](C(C)(C)C)NC(=O)CCSCc2cccc(c2)CSC[C@@H](C(N)=O)NC(=O)[C@H]([C@@H](C)O)NC(=O)[C@H](CCC)NC(=O)[C@H](Cc2ccc(O)cc2)NC(=O)[C@H](CCC(=O)O)NC1=O` [Compound 333] ([Mpa][Tle]YHT(Me)[Trp(7-aza)][Nva]EY[Nva]TC-NH2; linker 1-12 via mXylylene), for which the IC50 was 1000 to 21000 nM.

One may read the IC50 as the concentration that gives 50% inhibition. Read a high IC50 as a need for much substance.
